# Experimental data published in patent publication US20210206817A1, “Metabolically Stable Apelin Analogs in the Treatment of Disease Mediated by the Apelin Receptor” (priority 2014, published 2021).
# Read-outs that look alike come from different tables or passages of the source. Where a SMILES comes first, the peptide text is derived from it.
# Columns and labels:
# rat apelin receptor-EGFP [1] = molecular target: T1, rat apelin receptor-EGFP (Rattus norvegicus, UniProt Q9JHG3); assay: Inhibition of forskolin-induced cAMP production (HTRF); type: cell-based
# T1 construct: expressed in transfected cells
# T1 sequence (Q9JHG3 1-377): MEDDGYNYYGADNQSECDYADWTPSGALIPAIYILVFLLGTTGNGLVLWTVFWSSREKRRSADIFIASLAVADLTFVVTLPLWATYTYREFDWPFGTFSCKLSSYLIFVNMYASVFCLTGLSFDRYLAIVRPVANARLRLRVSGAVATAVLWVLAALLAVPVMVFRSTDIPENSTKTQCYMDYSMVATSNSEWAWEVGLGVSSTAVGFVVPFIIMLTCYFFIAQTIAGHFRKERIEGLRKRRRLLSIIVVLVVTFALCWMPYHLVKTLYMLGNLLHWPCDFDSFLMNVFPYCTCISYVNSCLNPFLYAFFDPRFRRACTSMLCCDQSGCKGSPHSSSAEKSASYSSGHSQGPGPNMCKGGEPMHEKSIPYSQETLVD
# rat apelin receptor-EGFP [2] = molecular target: T1, rat apelin receptor-EGFP; assay: Apelin receptor-EGFP internalization, confocal microscopy; type: cell-based; conditions: 1 μM, 20 min
# Experimental: The internalization assay was performed as described previously with CHO cells stably expressing the rat apelin receptor-EGFP (43). […] Cells were then mounted in Aquapolymount (Polysciences, Warrington, Pa., USA) for confocal microscopic analysis (Sec (42) for details).
# rat apelin receptor-EGFP [3] = molecular target: T1, rat apelin receptor-EGFP; assay: [125I]pE13F radioligand binding on CHO membrane preparations
# Experimental: Crude membrane preparation from CHO stably expressing the wild-type rat apelin receptor-EGFP, were prepared as previously described (39). […] The reaction was stopped by adding ice-cold binding buffer and filtered through glass microfiber filters (Whatman GF/C filters). Radioactivity was counted in Wizard 1470 Wallac gamma counter (Perkin Elmer, Turku, Finland).
# in vitro = conditions: mouse, plasma, 4 h
# Experimental: For each compound, the stock solution (100 μM in water) was diluted in plasma to a final incubation concentration of 5 μM. The incubation at 37° C. was stopped respectively at to and 4 h by adding one volume of ice cold acetonitrile containing 0.1% trifluoroacetic acid. The sample was vortexed for 1 min and then centrifuged at 4° C. before LC-MS injection of the supernatant. Analyses were performed on a Kinetex RP-C18 column (2.6 μm, 100 Å, 50×4.6 mm) using a linear gradient (solvent B in solvent A, solvent A: water/0.05% TFA; solvent B: acetonitrile; flow rate of 2 mL·min^−1: detection at 358 nm). The percentage of remaining test compound relative to t0 was measured by monitoring the peak area of the chromatogram.
# [4] = system: rat aortic rings precontracted by noradrenaline (NA); assay: Isometric tension of aortic rings precontracted by noradrenaline; conditions: precontraction 3×10^−6 M NA
# Experimental: The experiments were performed in rat aortic rings as previously described (39). […] The aortas were cleaned of excess connective tissue and fat and cut into rings of approximately 3-4 mm in length. Special care was taken to avoid damaging the luminal surface of the endothelium. […] One end of the aortic ring was connected to a tissue holder and the other to an isometric force transducer (EMKA Technologies, Paris, France). […] During equilibration period, the rings were washed every 30 min. Then, a first relaxation to acetylcholine (Ach, 10^−4 mol/L) was implemented to check the integrity or the absence of the endothelium in rings precontracted with NA (3×10^−8 mol/L). After rinsing with PSS to baseline tension, rings were equilibrated for 90 min. […] Each concentration of the drug was added at the maximal effect of the precedent concentration. The concentration-response curves were continuously recorded on a PC by means of IOX v 2.4 (EMKA Technologies, Paris) for further analysis (Datanalyst v2.1, EMKA Technologies, Paris).
# [5] = 10^−6 M forskolin, read-out: IC50 inhibition of forskolin-induced cAMP production
# [6] = competition with [125I]pE13F, CHO membranes, read-out: Ki for the apelin receptor (affinity)
# [7] = Table 3, read-out: IC50 cAMP inhibition
# [8] = Table 3, read-out: Ki nM ± SEM (15.11.2013)
SMILES,IC50 (rat apelin receptor-EGFP [1]; [5]),induction of apelin receptor internalization (rat apelin receptor-EGFP [2]),Ki (rat apelin receptor-EGFP [3]; [6]),IC50 (rat apelin receptor-EGFP [1]; [7]),Ki (rat apelin receptor-EGFP [3]; [8]),also measured
CSCC[C@H](NC(=O)[C@@H]1CCCN1C(=O)CNC(=O)[C@H](CCCCN)NC(=O)[C@H](Cc1c[nH]cn1)NC(=O)[C@H](CO)NC(=O)[C@H](CC(C)C)NC(=O)[C@H](CCCNC(=N)N)NC(=O)[C@@H]1CCCN1C(=O)[C@H](CCCNC(=N)N)NC(C)=O)C(=O)N1CCC[C@H]1C(=O)N[C@@H](Cc1ccccc1)C(=O)O [Ac—R12F],2.4 ± 1.4 nM,potent inducers of apelin receptor internalization,1.4 ± 0.7 nM,,,
CCCCCCCCCCCCCCCC(=O)N[C@@H](CCCCN)C(=O)N[C@@H](Cc1ccccc1)C(=O)N[C@@H](CCCNC(=N)N)C(=O)N[C@@H](CCCNC(=N)N)C(=O)N[C@@H](CCC(N)=O)C(=O)N[C@@H](CCCNC(=N)N)C(=O)N1CCC[C@H]1C(=O)N[C@@H](CCCNC(=N)N)C(=O)N[C@@H](CC(C)C)C(=O)N[C@@H](CO)C(=O)N[C@@H](Cc1c[nH]cn1)C(=O)N[C@@H](CCCCN)C(=O)NCC(=O)N1CCC[C@H]1C(=O)N[C@@H](CCSC)C(=O)N1CCC[C@H]1C(=O)N[C@@H](Cc1ccccc1)C(=O)O [JFM V-0196A],,,,,,"starting peptide remaining after 4 h (in vitro): 100% of star-ring peptide after 4 h; IC50 (rat apelin receptor-EGFP [1]; Table 2, read-out: cAMP production IC50): 3.9 ± 1.5 nM; Ki (rat apelin receptor-EGFP [3]; [125I]pE13F binding I (nM), Table 2): 0.76 ± 0.13 nM"
CSCC[C@H](NC(=O)[C@@H]1CCCN1C(=O)CNC(=O)[C@H](CCCCN)NC(=O)[C@H](Cc1c[nH]cn1)NC(=O)[C@H](CO)NC(=O)[C@H](CC(C)C)NC(=O)[C@H](CCCNC(=N)N)NC(=O)[C@@H]1CCCN1C(=O)[C@H](CCCNC(=N)N)NC(=O)[C@H](CCC(N)=O)NC(=O)[C@H](CCCNC(=N)N)NC(=O)[C@H](CCCNC(=N)N)NC(=O)[C@H](Cc1ccccc1)NC(=O)[C@H](CCCCN)NC(=O)[C@@H](N)CCCCNC(=O)CCC(F)(F)C(F)(F)C(F)(F)C(F)(F)C(F)(F)C(F)(F)C(F)(F)C(F)(F)F)C(=O)N1CCC[C@H]1C(=O)N[C@@H](Cc1ccccc1)C(=O)O [JFM V-0210/1],,,,3.8 ± 1 nM,0.18 ± 0.023 nM,
CCCCCCCCCCCCCCCC(=O)NCCCC[C@H](N)C(=O)N[C@@H](CCCCN)C(=O)N[C@@H](Cc1ccccc1)C(=O)N[C@@H](CCCNC(=N)N)C(=O)N[C@@H](CCCNC(=N)N)C(=O)N[C@@H](CCC(N)=O)C(=O)N[C@@H](CCCNC(=N)N)C(=O)N1CCC[C@H]1C(=O)N[C@@H](CCCNC(=N)N)C(=O)N[C@@H](CC(C)C)C(=O)N[C@@H](CO)C(=O)N[C@@H](Cc1c[nH]cn1)C(=O)N[C@@H](CCCCN)C(=O)NCC(=O)N1CCC[C@H]1C(=O)N[C@@H](CCSC)C(=O)N1CCC[C@H]1C(=O)N[C@@H](Cc1ccccc1)C(=O)O [JFM V-0210/2],,,,1.4 ± 0.5 nM,1.33 ± 0.15 nM,
CCCCCCCCCCCCCCCC(=O)NCCCC[C@H](N)C(=O)N[C@@H](Cc1ccccc1)C(=O)N[C@@H](CCCNC(=N)N)C(=O)N[C@@H](CCCNC(=N)N)C(=O)N[C@@H](CCC(N)=O)C(=O)N[C@@H](CCCNC(=N)N)C(=O)N1CCC[C@H]1C(=O)N[C@@H](CCCNC(=N)N)C(=O)N[C@@H](CC(C)C)C(=O)N[C@@H](CO)C(=O)N[C@@H](Cc1c[nH]cn1)C(=O)N[C@@H](CCCCN)C(=O)NCC(=O)N1CCC[C@H]1C(=O)N[C@@H](CCSC)C(=O)N1CCC[C@H]1C(=O)N[C@@H](Cc1ccccc1)C(=O)O [JFM V-0220A],,,,2 ± 0.75 nM,1.43 ± 0.74 nM,
CSCC[C@H](NC(=O)[C@@H]1CCCN1C(=O)CNC(=O)[C@H](CCCCN)NC(=O)[C@H](Cc1c[nH]cn1)NC(=O)[C@H](CO)NC(=O)[C@H](CC(C)C)NC(=O)[C@H](CCCNC(=N)N)NC(=O)[C@@H]1CCCN1C(=O)[C@H](CCCNC(=N)N)NC(=O)[C@H](CCC(N)=O)NC(=O)[C@H](CCCNC(=N)N)NC(=O)[C@H](CCCNC(=N)N)NC(=O)[C@H](Cc1ccccc1)NC(=O)[C@@H](N)CCCCNC(=O)CCC(F)(F)C(F)(F)C(F)(F)C(F)(F)C(F)(F)C(F)(F)C(F)(F)C(F)(F)F)C(=O)N1CCC[C@H]1C(=O)N[C@@H](Cc1ccccc1)C(=O)O [JFM V-0220B],,,0.2 nM,1 ± 0.4 nM,0.16 ± 0.01 nM,
"CCCC[C@H](NC(=O)[C@@H]1CCCN1C(=O)[C@@H](C)NC(=O)[C@H](CCCCN)NC(=O)C(C)(C)NC(=O)[C@H](CO)NC(=O)[C@@H](CC(C)C)NC(=O)[C@H](CCCNC(=N)N)NC(=O)[C@@H]1CCCN1C(=O)[C@H](CCCNC(=N)N)NC(=O)[C@@H](CCC(N)=O)NC(=O)[C@H](CCCNC(=N)N)NC(=O)[C@H](CCCNC(=N)N)NC(=O)[C@H](Cc1ccccc1)NC(=O)[C@H](CCCCN)NC(C)=O)C(=O)N1CCC[C@H]1C(=O)N[C@@H](Cc1ccc(Br)cc1)C(=O)O [P95, N-Acetyl-Lys-Phe-Arg-Arg-D-Gln-Arg-Pro-Arg-D-Leu-Ser-Aib-Lys-D-Ala-Pro-Nle-Pro-(4-Br)Phe] (HELM PEPTIDE1{[ac].K.F.R.R.[dQ].R.P.R.[dL].S.[Aib].K.[dA].P.[Nle].P.[O=C(O)[C@H](Cc1ccc(Br)cc1)N[*:1]]}$$$$V2.0; C-terminus assumed)",,,0.03 nM,,,"IC50 (rat apelin receptor-EGFP [1]; Table 1, read-out: cAMP production IC50): 0.34 ± 0.36 nM; affinity improved as compared to K17F by a factor (rat apelin receptor-EGFP [3]): 10; IC50 (rat apelin receptor-EGFP [3]; Table 1): 0.03 ± 0.02 nM"
CSCC[C@H](NC(=O)[C@@H]1CCCN1C(=O)CNC(=O)[C@H](CCCCN)NC(=O)[C@H](Cc1c[nH]cn1)NC(=O)[C@H](CO)NC(=O)[C@H](CC(C)C)NC(=O)[C@H](CCCNC(=N)N)NC(=O)[C@@H]1CCCN1C(=O)[C@H](CCCNC(=N)N)NC(=O)[C@@H]1CCC(=O)N1)C(=O)N1CCC[C@H]1C(=O)N[C@@H](Cc1ccc(Br)cc1)C(=O)O [pE13(4Br-Phe^13)],0.1 ± 0.05 nM,potent inducers of apelin receptor internalization,0.06 ± 0.02 nM,,,
CSCC[C@H](NC(=O)[C@@H]1CCCN1C(=O)CNC(=O)[C@H](CCCCN)NC(=O)C(C)(C)NC(=O)[C@H](CO)NC(=O)[C@H](CC(C)C)NC(=O)[C@H](CCCNC(=N)N)NC(=O)[C@@H]1CCCN1C(=O)[C@H](CCCNC(=N)N)NC(=O)[C@@H]1CCC(=O)N1)C(=O)N1CCC[C@H]1C(=O)N[C@@H](Cc1ccccc1)C(=O)O [pE13F(Aib^7)] (HELM PEPTIDE1{[Glp].R.P.R.L.S.[Aib].K.G.P.M.P.F}$$$$V2.0; C-terminus assumed),1.2 ± 0.6 nM,potent inducers of apelin receptor internalization,2.6 ± 2.3 nM,,,
CSCC[C@H](NC(=O)[C@@H]1CCCN1C(=O)[C@@H](C)NC(=O)[C@H](CCCCN)NC(=O)[C@H](Cc1c[nH]cn1)NC(=O)[C@H](CO)NC(=O)[C@H](CC(C)C)NC(=O)[C@H](CCCNC(=N)N)NC(=O)[C@@H]1CCCN1C(=O)[C@H](CCCNC(=N)N)NC(=O)[C@@H]1CCC(=O)N1)C(=O)N1CCC[C@H]1C(=O)N[C@@H](Cc1ccccc1)C(=O)O [pE13F(D-Ala^9)] (HELM PEPTIDE1{[Glp].R.P.R.L.S.H.K.[dA].P.M.P.F}$$$$V2.0; C-terminus assumed),43 ± 12 nM,potent inducers of apelin receptor internalization,4.3 ± 1.8 nM,,,
CCCC[C@H](NC(=O)[C@@H]1CCCN1C(=O)CNC(=O)[C@H](CCCCN)NC(=O)[C@H](Cc1c[nH]cn1)NC(=O)[C@H](CO)NC(=O)[C@H](CC(C)C)NC(=O)[C@H](CCCNC(=N)N)NC(=O)[C@@H]1CCCN1C(=O)[C@H](CCCNC(=N)N)NC(=O)[C@@H]1CCC(=O)N1)C(=O)N1CCC[C@H]1C(=O)N[C@@H](Cc1ccccc1)C(=O)O [pE13F(Nle^11)],,potent inducers of apelin receptor internalization,,,,
"CSCC[C@H](NC(=O)[C@@H]1CCCN1C(=O)CNC(=O)[C@H](CCCCN)NC(=O)[C@H](Cc1c[nH]cn1)NC(=O)[C@H](CO)NC(=O)[C@H](CC(C)C)NC(=O)[C@H](CCCNC(=N)N)NC(=O)[C@@H]1CCCN1C(=O)[C@H](CCCNC(=N)N)NC(=O)[C@@H]1CCC(=O)N1)C(=O)N1CCC[C@H]1C(=O)N[C@@H](Cc1ccccc1)C(=O)O [pE13F, reference compound]",,,,,,maximal relaxant effect [4]: 62±6%; potency (pD2) of relaxation [4]: 8.00±0.59
